According to patent US20220062173A1, “LIQUID COMPOSITIONS” (JOHNSON & JOHNSON CONSUMER INC., priority 2019, published 2022):
“Also recorded” adds a separate entry of the source.

What was measured:
oral cavity = assay: Taste-test evaluation of cooling sensates in base cough-cold liquid; assay type: in vivo; details: for Cooling site: area within the oral cavity where cooling could be felt; for Cooling Intensity: sensate in base cough-cold liquid at the listed addition level
Protocol: Various polymeric additives were combined into a base cough-cold liquid formula to determine interaction, and included various grades of Avicel®, CMC, HPMC among others. A synergistic effect was observed when Poloxamer was also included in the formulation containing above mentioned rheology modifier and a cooling flavor. A cooling sensation in the back of the throat could be felt, and the sensation lasted longer (approximately 5-10 min or even longer in some instances). […] The presence of just the viscosity modifiers and no Poloxamer, the same flavor did provide targeted cooling, but the extent and duration was less.
(§1) Cooling sensate samples were requested from various flavor suppliers and were included into the formulation at a level recommended by the manufacturer and evaluated by various individuals in terms of cooling efficiency/intensity, area within the oral cavity where cooling could be felt, cooling onset time, and duration of cooling. It was interesting to see that all the sensate provided different degree of cooling and the area within the oral cavity where cooling could be felt was different.
Mixing Procedure: The following procedure was used to mix the materials in Table 3. The formulation was prepared by adding purified water to a suitable vessel. The Avicel RC591 was then added while mixing using a high shear mixer until dissolved, followed by addition of propylene glycol while mixing using a propeller mixer at about 500-1000 RPM. The rest of the ingredients were added and mixed at approximately 50-100 RPM for at least 30 minutes. After complete dissolution, the solution was heated using a water bath to a temperature between […] for 15 minutes while continuously stirring. The solution was cooled to room temperature before adding propylene glycol while mixing. The rest of the ingredients were added and mixed for at least 30 minutes.

throat = assay: Additional cooling evaluation, targeted throat cooling; assay type: in vivo; details: Yes/No
Source text: as §1

[1] = solvents named; cited from earlier work
[2] = Solution conductivity measurement; assay type: physicochemical
Protocol: Conductivity of solutions containing Poloxamer-188 and Cooler #2 in purified water at different concentrations was measured using a MultiLab 4010-2 conductivity meter with an IDS 4320 Conductivity and Temperature Sensor.
It is important to note that the solutions turned cloudy once Cooler #2 was added to the solution, indicating formation of an emulsion. The turbidity of the solutions was not very different as the level of Cooler #2 was increased.
Conductivity of the Water-PG solutions containing 0.35% CMC and 0.35% HPMC was also measured in water and in combination with Cooler #2 and Poloxamer. The conductivity results are summarized below in Table 5.

Compound	Duration (oral cavity; Table 3)	Overall (oral cavity; Table 3)	Onset time (oral cavity; Table 3, values in min)	Cooling site (oral cavity)	Overall (oral cavity; overall taste evaluation)	Cooling Intensity (oral cavity)	Targeted Throat Cooling (throat)	Solubility [1]	Synergistic sensate effect (oral cavity)	Onset time (oral cavity; Table 3, values in secs)	Cooling site (oral cavity; listed as Symcool WS-5)	Duration (oral cavity; duration of cooling)	Onset time (oral cavity; values in secs)	Onset time (oral cavity; in words)	Cooling site (oral cavity; listed as IFF cooler #2)	Conductivity ([2]; 0.05% of Cooler #2, 0.4% Poloxamer, Water-5% propylene glycol, about 7.4 without cooler)	Effect on conductivity of the solution ([2]; purified water, Poloxamer-188 0.2% to 2.0%, 0.15% of Cooler #2)	Cooling site (oral cavity; listed as Symcool®WS-3)
COc1ccc(NC(=O)[C@@H]2C[C@H](C)CC[C@H]2C(C)C)cc1 [WS 12, (1R,2S,5R)-N-(4-methoxyphenyl)-5-methyl-2-(1-methylethyl) cyclohexanecarboxamide]	5 to 7 min	Mild cooling	60 to 120 s	mostly tongue and some in upper throat	Mild cooling noticeable on tongue and some back of the throat	Mild Cooling	No											
CCOC(=O)CNC(=O)[C@@H]1C[C@H](C)CC[C@H]1C(C)C [WS-5, N-[(ethoxycarbonyl)methyl)-p-menthane-3-carboxamide]	6 to 7 min	Intense cooling		cooling in mouth, tongue along with some cooling in the back of the throat	Intense cooling noticeable all around the oral cavity, tongue, and upper throat	Intense Cooling	Yes	Propylene Glycol, ethanol, insoluble in water	Did work, providing synergistic sensate effect	~10 s	towards the back on mouth, upper throat, and tongue	6 to 7 min	~10 s					
CC(C)[C@@H]1CC[C@@H](C)C[C@H]1O [Menthol, (1R,2S,5R)-2-isopropyl-5-methylcyclohexanol, reference compound]	5 to 6 min	Cooling		Throat and some in oral cavity tongue and front of the mouth	Cooling noticeable on tongue and front of the mouth and throat	Intense cooling	No			~10 s				Immediate				
CC(C)[C@@H]1CC[C@@H](C)C[C@H]1OC(=O)CCCC(=O)O (stereo in doubt) [Cooler #2, Monomenthyl Glutarate]				all the cooling was in the back of the throat	Cooling concentrated towards the back of the throat, intensity grows with time and duration longer than others	Mild to medium cooling	Yes	Ethanol and Propylene Glycol, insoluble in Water	Did work, providing synergistic sensate effect			7 to 9 min	~30 s		Throat	about 35 μS/cm	significant effect on the conductivity of the solution at lower concentrations of Poloxamer-188	
CNC(=O)C(C)(C(C)C)C(C)C [WS 23, 2-isopropyl-N,2,3-trimethylbutyramide]	3 to 4 min	Mild cooling		tongue and front of the mouth	Mild cooling noticeable on tongue, and front of the mouth, tingling and nose cooling as you breath out	Mild Cooling, less than WS-3 and WS-5	No			~10 s			~10 s					
CC(O)C(=O)O[C@@H]1C[C@H](C)CC[C@H]1C(C)C (stereo partly shown) [Symcool NAT, Menthyl Lactate]	5 to 6 min	Medium		cooling in mouth, tongue along with some cooling in the back of the throat; also recorded: Tongue and some throat cooling	Liquorish taste and cooling in the mouth and towards the back of the throat, cooling in throat as you breath in, intensity grows with time	medium cooling	Yes	Propylene glycol, ethanol	Did work, providing synergistic sensate effect	~10 s				immediate				
CCNC(=O)[C@@H]1C[C@H](C)CC[C@H]1C(C)C [WS-3, N-ethyl 2-isopropyl-5-methylcyclohexanecarboxamide]	4 to 5 min	Intense		cooling in mouth, tongue along with some cooling in the back of the throat	Intense cooling noticeable all around, tongue, and upper throat, sweeter sensation like menthol	Intense Cooling, more intense than WS-5	Yes	Propylene Glycol, ethanol, insoluble in water	Did work, providing synergistic sensate effect	~10 s			~10 s					towards the back on mouth, upper throat, and tongue
